{"source": "paper PMC8558867", "about": "“Development of BromoTag: A “Bump-and-Hole”–PROTAC System to Induce Potent, Rapid, and Selective Degradation of Tagged Target Proteins” (Journal of Medicinal Chemistry, 2021)", "key": {"BromoTag-Brd2 [1]": {"system": "BromoTag-Brd2", "assay": "Competition assay (inhibitor pretreatment, western blot)", "assay_type": "cell-based, human", "conditions": "200 nM 46 for 3 h after 1 h pretreatment", "method": "Heterozygous BromoTag-Brd2 HEK293 cells were plated in six-well plates at a density of 5 × 10^5 cells per well in 2 mL DMEM. […] After 3 h, the cells were harvested for subsequent processing via western blot. Each treatment was performed in tandem to produce two technical repeats per condition. The six-well plates were incubated for 4 h at 37 °C and 5% CO2 throughout the experiment.\n(§1) All cells were harvested on ice with RIPA lysis and extraction buffer (Thermo Fisher Scientific, 89901) supplemented with protease inhibitor cocktail (Merck, 11697498001) and Benzonase Nuclease (Sigma, E1014) before being stored at −20 °C prior to use. Total protein quantity was determined using the BCA protein assay (#23225, Pierce, Rockford, Illinois). The protein concentration was determined using the BCA assay (Thermo Fisher Scientific, 23225). The samples were then prepared and loaded onto NuPAGE 4–12% bis–tris Midi gels (Thermo Fisher Scientific, WG1403A), followed by the transfer of proteins onto nitrocellulose membranes (EMD Millipore). The membranes were blocked for 1 h prior to incubation with the primary antibodies using 5% Milk TBST. […] All western blots were analyzed for band intensities using Image Lab from Bio-Rad (LI-COR, Biosciences). The data extracted from these blots were then plotted and analyzed using Prism (v. 8.2.0, GraphPad)."}, "Plasma stability": {"assay": "Plasma stability", "assay_type": "in vitro ADME", "conditions": "mouse plasma, 37 °C, over 1 h", "method": "Plasma stability studies were outsourced and undertaken by Shanghai ChemPartner Co., Ltd. Buffer preparation: a solution of 0.05 M sodium phosphate and 0.07 M NaCl buffer at pH 7.4 was made by dissolving 14.505 g/L of Na2HPO4·12H2O, 1.483 g/L of NaH2PO4·2H2O, and 4.095 g/L of NaCl in deionized water, and the pH was adjusted with phosphoric acid. Plasma preparation: frozen mouse plasma was thawed by placing at 37 °C quickly. The thawed plasma was centrifuged at 3000 rpm for 8 min to remove clots, and the supernatant was pooled to be used as the plasma in the experiment. The plasma (pH 7.4–8.0) was stored on ice until used. […] Plasma and spiking solutions were prewarmed at 37 °C for 5 min, and then 10 μL of prewarmed spiking solution B was added into the wells designated for all the time points (5, 15, 30, 45, and 60 min). For 0 min, 400 μL of acetonitrile-containing internal standards (imipramine, glipizide) was added to the wells of a 0 min plate, and then 90 μL of plasma was added. For the time points (0, 5, 15, 30, 45, and 60 min), 90 μL of prewarmed plasma was added at the initial stage. At 5, 15, 30, 45, and 60 min, 400 μL of acetonitrile containing the internal standard (imipramine, glipizide) was added to the wells of the corresponding plates to stop the reaction. […] Data was analyzed with Microsoft Excel."}, "MV-4-11 cells": {"system": "MV-4-11 cells", "assay": "CellTiter-Glo 2.0 cell viability assay, MV-4-11", "assay_type": "cell-based, human", "conditions": "MV-4-11, up to 1–10 μM"}, "In vivo PK profiling": {"assay": "In vivo PK profiling", "conditions": "male, C57BL/6, mouse, plasma, mice", "method": "PK profiling was outsourced and undertaken by Shanghai ChemPartner Co., Ltd. All animal experiments performed were conducted in compliance with the Institutional Animal Care and Use Committee (IACUC) and the Office of Laboratory Animal Welfare (OLAW) guidelines. Six- to eight-week-old C57BL/6 male mice purchased from Jihui Laboratory Animal Co. LTD were used in the study. […] The animals were restrained manually at the designated time points (0.083, 0.25, 0.5, 1, 2, 4, and 8 h); approximately, 110 μL of blood sample was collected via facial vein into K2EDTA tubes. Three mice per time point were used, resulting in a […]. The blood sample was put on ice and centrifuged at 2000g for 5 min to obtain the plasma sample within 15 min. The plasma samples were stored at approximately −70 °C until analysis. A 30 μL aliquot of plasma was added with 200 μL of internal standard (diclofenac, 40 ng/mL) in 1% formic acid in MeCN. The mixture was then vortexed for 1 min and then centrifuged for 10 min at 5800 rpm. The supernatant (100 μL) was transferred to a new plate. The solvent (0.5 μL) was injected to LC–MS/MS. LC–MS/MS instrument used: SCIEX LC–MS/MS-45 (Triple Quad 6500+). Data was analyzed by WinNonLin and Microsoft Excel."}, "VHL (VCB protein)": {"biological_target": "T1, VHL (VCB protein) (Homo sapiens, UniProt P40337)", "T1 construct": "N-terminally His6-tagged VHL (54–213); His6 (N, cleaved yes); made in house; host or cells: E. coli", "assay": "FP competitive binding assay, binary binding", "conditions": "compound alone; mean ±S.E.M., N = 4; read-out: binary affinity to VHL Kd"}, "HEK293 cells": {"system": "HEK293 cells", "assay": "CellTiter-Glo 2.0 cell viability assay, HEK293", "assay_type": "cell-based, human", "conditions": "HEK293, up to 1–10 μM"}, "BromoTag-Brd2 [2]": {"system": "BromoTag-Brd2", "assay": "Time course degradation assay (western blot, 0–36 h) in heterozygous BromoTag-Brd2 HEK293 cells", "assay_type": "cell-based, human", "conditions": "500 nM", "method": "Heterozygous BromoTag-Brd2 HEK293 cells were plated at a density of 5 × 10^5 cells per well of a six-well healthy plate a day prior to initiating the time course assay. […] The time point range was between 0 and 36 h. Treatment was applied in a staggered fashion to enable all time points to be harvested at the same time.\nas §1"}}, "note": "Like-named read-outs stand apart in the source and are kept apart here."}
{"smiles": "CC[C@@H](C(=O)OCCOCCOCCOCC(=O)N[C@H](C(=O)N1C[C@H](O)C[C@H]1C(=O)NCc1ccc(-c2scnc2C)cc1)C(C)(C)C)[C@@H]1N=C(c2ccc(Cl)cc2)c2c(sc(C)c2C)-n2c(C)nnc21", "note": "[AGB1 (46), (S)-13-((2S,4R)-4-Hydroxy-2-((4-(4-methylthiazol-5-yl)benzyl)carbamoyl)pyrrolidine-1-carbonyl)-14,14-dimethyl-11-oxo-3,6,9-trioxa-12-azapentadecyl (R)-2-((S)-4-(4-chlorophenyl)-2,3,9-trimethyl-6H-thieno[3,2-f][1,2,4]triazolo[4,3-a][1,4]diazepin-6-yl)butanoate]", "values": [{"measurement": "on-target degradation activity upon pretreatment with MLN4924 or VH298", "setting": "BromoTag-Brd2 [1]; 3 μM MLN4924, 10 μM VH298", "value": "completely abrogated"}, {"measurement": "on-target degradation activity upon pretreatment with MG132", "setting": "BromoTag-Brd2 [1]; 50 μM MG132", "value": "blocked"}, {"measurement": "plasma stability: levels remaining", "setting": "Plasma stability", "value": "no significant changes"}, {"measurement": "cytotoxicity", "setting": "MV-4-11 cells", "value": "lack of cytotoxicity"}, {"measurement": "AUC(0-t) at 8 h", "setting": "In vivo PK profiling; IV (5 mg/kg)", "value": 1.71, "unit": "µM·h"}, {"measurement": "MRT inf", "setting": "In vivo PK profiling; IV (5 mg/kg)", "value": 23.4, "unit": "min"}, {"measurement": "clearance at 8 h", "setting": "In vivo PK profiling; IV (5 mg/kg)", "value": 47.2, "unit": "mL/min/kg"}, {"measurement": "half-life at 8 h", "setting": "In vivo PK profiling; IV (5 mg/kg)", "value": 89.4, "unit": "min"}, {"measurement": "AUC(0-inf) at 8 h", "setting": "In vivo PK profiling; IV (5 mg/kg), read-out: AUCinf", "value": 1.72, "unit": "µM·h"}, {"measurement": "Vd at 8 h", "setting": "In vivo PK profiling; IV (5 mg/kg), read-out: Vss", "value": 1.1, "unit": "L/kg"}, {"measurement": "AUC(0-t) at 8 h", "setting": "In vivo PK profiling; SC (5 mg/kg)", "value": 2.33, "unit": "µM·h"}, {"measurement": "Cmax at 8 h", "setting": "In vivo PK profiling; SC (5 mg/kg)", "value": 700, "unit": "nM"}, {"measurement": "Tmax at 8 h", "setting": "In vivo PK profiling; SC (5 mg/kg)", "value": 30, "unit": "min"}, {"measurement": "half-life at 8 h", "setting": "In vivo PK profiling; SC (5 mg/kg)", "value": 99, "unit": "min"}, {"measurement": "AUC(0-inf) at 8 h", "setting": "In vivo PK profiling; SC (5 mg/kg), read-out: AUCinf (μ; M·h)", "value": 2.4, "unit": "µM·h"}, {"measurement": "Kd", "setting": "VHL (VCB protein)", "value": 125, "unit": "nM"}, {"measurement": "cytotoxicity", "setting": "HEK293 cells", "value": "lack of cytotoxicity"}, {"measurement": "time to completely degrade BromoTag-Brd2", "setting": "BromoTag-Brd2 [2]", "value": "≤ 6", "unit": "h"}]}
